Assay results reported in article PMC4198181, “Gold(I) Complexes of 9-Deazahypoxanthine as Selective Antitumor and Anti-Inflammatory Agents” (PLoS ONE, 2014).

Experiments:
[1] = tested on: TNF-α secretion in LPS-stimulated macrophage-like THP-1 cells; assay: LPS-induced TNF-α secretion in THP-1 macrophages (ELISA); format: cell-based, human; conditions: 300 nM, 1 h pretreatment, 24 h after LPS
Protocol: (§1) For the determination of biological activity, we used the human monocytic leukaemia cell line THP-1 (ECACC, Salisbury, UK). The cells were cultivated at 37°C in the RPMI 1640 medium supplemented with 2 mM L-glutamine, 10% FBS, 100 U/mL of penicillin and 100 µg/mL of streptomycin in a humidified atmosphere containing 5% CO2. Stabilized cells (3rd–15th passage) were split into microtitration plates to get a concentration of 500 000 cells/mL and the differentiation to macrophages was induced by phorbol myristate acetate (PMA) dissolved in dimethyl sulfoxide (DMSO) at the final concentration of 50 ng/ml, and the cells were incubated for 24 h. In comparison with monocytes, differentiated macrophages tend to adhere to the bottoms of the cultivation plates. For next 24 h the cells were incubated with a fresh complete RPMI medium, i.e. containing antibiotics and FBS, without PMA. The medium was then aspirated, and the cells were washed with PBS and cultivated for next 24 hours in serum-free RPMI 1640 medium. These prepared macrophages were used for the detection of inflammatory response.
(§2) Differentiated macrophages were pretreated with 300 nM solutions of the tested complexes, HLn, AuCl, [AuCl(PPh3)], PPh3 and Auranofin dissolved in DMSO (the final DMSO concentration was 0.1%) and with 0.1% DMSO solution itself (vehicle) for 1 h; the given concentrations of the tested compounds lack the cytotoxic effect (cell viability >94%) based on the results of WST-1 test. The inflammatory response in pretreated macrophages was triggered by the addition of 1.0 µg/mL lipopolysaccharide (LPS) dissolved in water, while the control cells (CTRL) remained without the LPS treatment.
(§3) Macrophages, which were pretreated with the tested compounds (complexes 1–5, HLn, AuCl, [AuCl(PPh3)], PPh3 and Auranofin) for 1 h, were incubated with LPS for next 24 h. After this period, the medium was collected and the concentration of TNF-α, and IL-1β was determined by the Instant ELISA Kit according to the manufactures' manual.
(§4) The statistically significant differences between individual groups during anti- inflammatory testing were evaluated using a one-way ANOVA test for statistical analysis, followed by Tukey's post-hoc test for multiple comparisons. GraphPad Prism 5.02 (GraphPad Software Inc., San Diego, CA, USA) was used to perform the analysis. The results are presented as arithmetic means±S.E. values.

[2] = tested on: IL-1β secretion in LPS-stimulated macrophage-like THP-1 cells; assay: LPS-induced IL-1β secretion in THP-1 macrophages (ELISA); format: cell-based, human; conditions: 300 nM, 1 h pretreatment, 24 h after LPS
Protocol: as §1, §2, §3, §4

[3] = tested on: 22Rv1 prostate carcinoma cells; assay: MTT in vitro cytotoxicity, 22Rv1; format: cell-based, human; conditions: 24 h treatment, read-out: IC50±S.E., 22Rv1
Protocol: (§5) In vitro cytotoxic activity was determined by the MTT assay in human breast adenocarcinoma (MCF7; ECACC no. 86012803), human osteosarcoma (HOS; ECACC no. 87070202), lung carcinoma (A549; ECACC no. 86012804), malignant melanoma (G361; ECACC no. 88030401), cervix epitheloid carcinoma (HeLa; ECACC no. 93021013), ovarian carcinoma (A2780; ECACC no. 93112519), cisplatin-resistant ovarian carcinoma (A2780R; […] ECACC no 105092802) cancer cell lines, purchased from European Collection of Cell Cultures (ECACC). […] The primary culture of human hepatocytes (HEP220, batch number HEP220819) was obtained from Biopredic International (France). The culture medium was Williams and HAM's F-12 (1∶1) supplemented with penicillin, streptomycin, ascorbic acid, linoleic acid, holo-transferin, ethanolamine, glucagon, insulin, dexamethasone, pyruvate, glucose, glutamine, amphotericin. The medium was enriched for plating with 2% foetal calf serum (v/v). The medium was exchanged for a serum-free medium the day after and the culture was stabilized for additional 24 h. Thereafter, the cells were ready for treatments. […] The MTT assay was performed spectrophotometrically at 540 nm (TECAN, Schoeller Instruments LLC). The cytotoxicity data were expressed as the percentage of viability, where 100% represented the treatments with vehicle (0.1% DMF or 0.1% DMSO). The cytotoxicity data from the cancer cell lines were acquired from three independent experiments (conducted in triplicate) using cells from different passages. The IC50 values were calculated from viability curves. The results are presented as arithmetic means±standard error of the mean (S.E.).

[4] = tested on: primary culture of human hepatocytes (HEP220); assay: MTT in vitro cytotoxicity, primary human hepatocytes; format: cell-based; conditions: 24 h treatment, MTT; read-out: IC50±S.E., HEP220 (healthy human hepatocytes)
Protocol: as §5

[5] = tested on: G361 malignant melanoma cells; assay: MTT in vitro cytotoxicity, G361; format: cell-based, human; conditions: 24 h treatment, read-out: IC50±S.E., G361
Protocol: as §5

[6] = tested on: MCF7 breast carcinoma cells; assay: MTT in vitro cytotoxicity, MCF7; format: cell-based, human; conditions: 24 h treatment, read-out: IC50±S.E., MCF7
Protocol: as §5

[7] = tested on: HeLa cervix epitheloid carcinoma cells; assay: MTT in vitro cytotoxicity, HeLa; format: cell-based, human; conditions: 24 h treatment, read-out: IC50±S.E., HeLa
Protocol: as §5

[8] = tested on: A549 lung carcinoma cells; assay: MTT in vitro cytotoxicity, A549; format: cell-based, human; conditions: 24 h treatment, read-out: IC50±S.E., A549
Protocol: as §5

[9] = tested on: HOS osteosarcoma cells; assay: MTT in vitro cytotoxicity, HOS; format: cell-based, human; conditions: 24 h treatment, read-out: IC50±S.E., HOS
Protocol: as §5

[10] = tested on: A2780R ovarian carcinoma cells resistant to cisplatin; assay: MTT in vitro cytotoxicity, A2780R; format: cell-based, human; conditions: for IC50: 24 h treatment, MTT, read-out: IC50±S.E., A2780R
Protocol: as §5

[11] = tested on: A2780 ovarian carcinoma cells; assay: MTT in vitro cytotoxicity, A2780; format: cell-based, human; conditions: 24 h treatment, read-out: IC50±S.E., A2780
Protocol: as §5

[12] = tested on: THP-1 monocytic leukaemia cells; assay: WST-1 in vitro cytotoxicity, THP-1; format: cell-based, human; conditions: 24 h treatment, WST-1, 0.16–10.00 µM; read-out: IC50±S.E., THP-1
Protocol: Before the in vitro anti-inflammatory testing, in vitro cytotoxicity on human monocytic leukaemia cells (THP-1, ECACC no. 88081201) was determined using the WST-1 assay. The THP-1 cells (floating monocytes, 500 000 cells/mL) were incubated in 100 µL of the serum-free RPMI 1640 medium and seeded into 96-well plates in triplicate at 37°C. Measurements were taken 24 h after the treatment with the tested compounds dissolved in 0.1% DMSO in the concentration range of 0.16–10.00 µM. Viability was determined by the WST-1 test according to the manufacturer's manual. The amount of the formed formazan (which correlates to the number of metabolically active cells in the culture) was calculated as a percentage of the control cells, which were treated only with 0.1% DMSO and was set-up as 100%. The IC50 values of the tested compounds were calculated from the obtained data. The WST-1 assay was performed spectrophotometrically at 440 nm (FLUOstar Omega, BMG Labtech).
The cytotoxicity data were expressed as the percentage of viability, where 100% represented the treatments with vehicle (0.1% DMF or 0.1% DMSO). The cytotoxicity data from the cancer cell lines were acquired from three independent experiments (conducted in triplicate) using cells from different passages. The IC50 values were calculated from viability curves. The results are presented as arithmetic means±standard error of the mean (S.E.). The significance of the differences between the results was assessed by the ANOVA analysis with p<0.05 considered to be significant (QC Expert 3.2, Statistical software, TriloByte Ltd., Pardubice, Czech Republic).

[13] = tested on: λ-carrageenan-induced hind paw edema; assay: Carrageenan-induced hind paw edema; format: in vivo, Wistar-SPF rats; conditions: i.p., dose equivalent in gold to 10 mg/kg Auranofin
Protocol: Wistar-SPF (6–8 weeks male) rats were obtained from AnLab, Ltd. (Prague, Czech Republic). The animals were kept in plexiglass cages at the constant temperature of 22±1°C and relative humidity of 55±5% for at least 1 week before the experiment. They were given food and water ad libitum. All the experimental procedures were performed according to the National Institutes of Health (NIH) Guide for the Care and Use of Laboratory Animals. In addition, all the tests were conducted under the guidelines of the International Association for the Study of Pain [61]. After a one-week adaptation period, male Wistar-SPF rats (200–250 g) were randomly assigned to five groups (n = 7) of the animals in the study. The first, control group, received 25% DMSO (v/v in water, intraperitoneal; i.p.). The next three groups were pretreated with complexes 2, 4 and 5, and involved into the carrageenan-treatment. The fifth group was treated with a non-steroidal anti-inflammatory drug Indomethacin (5 mg/kg), which served as a positive control group (Indomethacin + carrageenan).
The carrageenan-induced hind paw edema model was used for the determination of anti-inflammatory activity. Animals were i.p. pretreated with complexes 2, 4, and 5 (the dosages of the individual complexes were adjusted to contain the same amount of gold as in 10 mg/kg dose of Auranofin), Indomethacin (5 mg/kg), or 25% DMSO (v/v in water) 30 min prior to the injection of 1% λ-carrageenan solution (50 µL) into the plantar side of right hind paws of the rats. The paw volume was measured immediately after the carrageenan injection (this value was set-up as baseline value for the hind paw volume) and during the next 6 h after the administration of the edematogenic agent using a plethysmometer (model 7159, Ugo Basile, Varese, Italy). The degree of swelling was evaluated as a percentage of the change of the volume of the right hind paw after the carrageenan treatment from the baseline volume. A non-steroidal anti-inflammatory drug Indomethacin was used as a positive control and the obtained data were also compared with the previously reported profile of antiedematous activity for Auranofin [38]. After 6 h, the animals were sacrificed and the edematous feet were dissected, the tissue from the plantar parts was extracted, fixed and stained by a standard hematoxylin/eosin (HE) staining for cytological evaluation of polymorphonuclear cells infiltration.
as §4

SMILES | effect on LPS-induced TNF-α secretion [1] | IC50 [3] | IC50 [4] | IC50 [5] | IC50 [6] | IC50 [7] | IC50 [8] | IC50 [9] | IC50 [10] | IC50 [11] | IC50 [12] | also measured
CC(C)Oc1ncnc2cc[nH]c12 [HL2, 6-isopropyloxy-9-deazapurine] | stimulate the production |  |  |  |  |  |  |  |  |  |  | 
c1ccc(COc2ncnc3cc[nH]c23)cc1 [HL4, 6-benzyloxy-9-deazapurine] | stimulate the production |  |  |  |  |  |  |  |  |  |  | 
c1ccc(CCOc2ncnc3cc[nH]c23)cc1 [HL5, 6-phenethyloxy-9-deazapurine] | stimulate the production |  |  |  |  |  |  |  |  |  |  | 
c1ccc(P(c2ccccc2)c2ccccc2)cc1 [PPh3, triphenylphosphine] | none of the reference compounds, such as AuCl, HLn, [AuCl(PPh3)] and PPh3, exhibited any expected effect |  |  |  |  |  |  |  |  |  |  | effect on LPS-induced IL-1β secretion [2]: decreased the production of IL-1β by a manner comparable to free ligands; level of IL-1β diminished by [2]: ~32%
[Cl][Au].c1ccc(P(c2ccccc2)c2ccccc2)cc1 [[AuCl(PPh3)], reference compound] | none of the reference compounds, such as AuCl, HLn, [AuCl(PPh3)] and PPh3, exhibited any expected effect |  |  |  |  |  |  |  |  |  |  | 
N.N.[Cl][Pt][Cl] [cisplatin, reference compound] |  | 26.9 ± 1.2 µM | > 50 µM | 5.3 ± 0.2 µM | 17.9 ± 1.2 µM | > 50 µM | > 50 µM | 20.5 ± 0.1 µM | 27 ± 1.5 µM | 11.5 ± 0.5 µM |  | resistance factor (RF), IC50(A2780R)/IC50(A2780) ([10]; ratio resistant/sensitive cells): 2.4
CCOc1ncnc2cc[n]([Au])c12.c1ccc(P(c2ccccc2)c2ccccc2)cc1 [complex 1] |  | 3.5 ± 0.1 µM | 24 ± 1.9 µM | 3.5 ± 0.2 µM | 3.1 ± 0.2 µM | 22 ± 0.6 µM | 20.7 ± 0.1 µM | 3.3 ± 0.1 µM | 5.2 ± 0.3 µM | 4.8 ± 0.1 µM | 0.8 ± 0.1 µM | level of IL-1β diminished by [2]: 32%
[Au][n]1ccc2ncnc(OCC3CCCO3)c21.c1ccc(P(c2ccccc2)c2ccccc2)cc1 [complex 3] |  | 21 ± 0.7 µM | 24.1 ± 2.4 µM | 3.4 ± 0.2 µM | 2.2 ± 0.2 µM | 20.7 ± 0.2 µM | 21.4 ± 0.2 µM | 4 ± 0.6 µM | 5.3 ± 0.4 µM | 4.6 ± 0.3 µM | 1 ± 0.1 µM | 
[Au][n]1ccc2ncnc(OCc3ccccc3)c21.c1ccc(P(c2ccccc2)c2ccccc2)cc1 [complex 4] |  | 3.5 ± 0.2 µM | 23.7 ± 2.1 µM | 3.5 ± 0.2 µM | 4 ± 0.9 µM | 14.3 ± 0.2 µM | > 20 µM | 1.8 ± 0.3 µM | 5.1 ± 0.3 µM | 4.6 ± 0.2 µM | 1.7 ± 0.1 µM | overall antiedematous / anti-inflammatory activity [13]: significant anti-inflammatory effects; antiedematous activity profile up to 180 min after carrageenan ([13]; 30 min before carrageenan): very similar pharmacological profiles of complexes 2 and 4 with the reference drug Indomethacin
